# Tests used:
# Type in all cases: biochemical
# [1] = target: kappa opioid receptor (Homo sapiens, UniProt P41145); conditions: read-out: calc Ki (nM) k
# [2] = target: delta opioid receptor (Homo sapiens, UniProt P41143); conditions: read-out: calc Ki (nM) δ2
# [3] = target: Mu opioid receptor (Homo sapiens, UniProt P35372); conditions: read-out: calc Ki (nM) μ
# [4] = target: T1, human opioid receptor-like receptor (ORL-1) (Homo sapiens, UniProt P41146); conditions: read-out: Nociceptin Affinity calc Ki
# T1 construct: host or cells: HEK-293
# T1 sequence (P41146 whole entry): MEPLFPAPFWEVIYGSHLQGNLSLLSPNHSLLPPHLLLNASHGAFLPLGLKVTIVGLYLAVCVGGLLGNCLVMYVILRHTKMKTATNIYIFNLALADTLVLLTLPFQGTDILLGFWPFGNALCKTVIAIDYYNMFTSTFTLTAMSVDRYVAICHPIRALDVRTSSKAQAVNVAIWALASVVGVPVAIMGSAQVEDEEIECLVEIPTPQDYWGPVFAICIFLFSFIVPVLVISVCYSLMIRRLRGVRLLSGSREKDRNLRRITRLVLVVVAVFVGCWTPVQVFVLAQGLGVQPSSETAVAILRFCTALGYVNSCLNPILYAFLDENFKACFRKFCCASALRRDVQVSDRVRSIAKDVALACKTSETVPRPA
# Chain of Mu opioid receptor (P35372 whole entry): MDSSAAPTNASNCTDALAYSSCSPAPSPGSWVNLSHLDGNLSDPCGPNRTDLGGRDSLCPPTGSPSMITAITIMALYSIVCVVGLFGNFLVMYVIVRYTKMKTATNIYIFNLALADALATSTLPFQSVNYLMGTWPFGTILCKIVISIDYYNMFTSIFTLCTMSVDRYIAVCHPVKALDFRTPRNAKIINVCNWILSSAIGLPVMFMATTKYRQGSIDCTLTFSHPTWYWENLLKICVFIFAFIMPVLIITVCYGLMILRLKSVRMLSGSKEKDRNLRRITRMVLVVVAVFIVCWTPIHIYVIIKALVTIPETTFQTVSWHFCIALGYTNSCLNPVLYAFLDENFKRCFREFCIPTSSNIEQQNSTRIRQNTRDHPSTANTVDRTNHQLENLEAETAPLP
# Chain of delta opioid receptor (P41143 whole entry): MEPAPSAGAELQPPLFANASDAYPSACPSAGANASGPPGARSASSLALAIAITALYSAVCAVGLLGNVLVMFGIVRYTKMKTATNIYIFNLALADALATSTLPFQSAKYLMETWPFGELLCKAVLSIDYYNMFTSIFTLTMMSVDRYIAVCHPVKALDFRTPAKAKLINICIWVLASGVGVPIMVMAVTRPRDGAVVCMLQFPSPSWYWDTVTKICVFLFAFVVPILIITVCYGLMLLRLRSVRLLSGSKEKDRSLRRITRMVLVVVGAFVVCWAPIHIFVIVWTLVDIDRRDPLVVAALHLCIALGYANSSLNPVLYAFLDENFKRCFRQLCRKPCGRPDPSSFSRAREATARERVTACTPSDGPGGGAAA
# Chain of kappa opioid receptor (P41145 whole entry): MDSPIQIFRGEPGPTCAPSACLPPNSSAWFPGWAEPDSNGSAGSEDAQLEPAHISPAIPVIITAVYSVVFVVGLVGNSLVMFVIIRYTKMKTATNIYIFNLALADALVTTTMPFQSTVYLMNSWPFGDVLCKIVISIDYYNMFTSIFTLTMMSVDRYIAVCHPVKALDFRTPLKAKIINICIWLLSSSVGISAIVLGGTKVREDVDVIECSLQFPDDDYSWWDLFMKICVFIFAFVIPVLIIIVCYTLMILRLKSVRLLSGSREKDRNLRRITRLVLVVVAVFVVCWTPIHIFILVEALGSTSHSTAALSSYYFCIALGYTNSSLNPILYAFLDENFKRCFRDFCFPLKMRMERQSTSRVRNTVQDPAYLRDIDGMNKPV
Molecule,Ki [1] [nM],Ki [2] [nM],Ki [3] [nM],Ki [4] [nM]
"1-[4-(4-propylcyclohexane)-4-piperidinyl]-3-[1-oxo-ethyl]-1,3-dihydro-2H-1,3-benzamidazol-2-one",1600,> 10000,23.2,464
"1-[4-(4-propyl-1,2-cyclohexene)-4-piperidinyl]-1,3-dihydro-2H-1,3-benzamidazol-2-one",1500,1220,265,469
"O=c1[nH]c2ccccc2n1C1CCN(CCCC(c2ccc(F)cc2)c2ccc(F)cc2)CC1 [1-[4-(4,4-difluorophenylbutyl)-4-piperidinyl]-1,3-dihydro-2H-1,3-benzamidazol-2-one]",–,–,–,420

# Reference: US7678809B2 (priority 1999, dated 2010)
